How the values were obtained:
SARS-CoV-2 M^pro = conditions: cited from earlier work
[1] = target: recombinant SARS-CoV-2 PL^pro (GST-PL^pro) (Severe acute respiratory syndrome coronavirus 2, UniProt P0DTD1); experiment: SARS-CoV-2 PLpro luminescent assay; format: biochemical; conditions: for IC50: luminogenic substrate, 60 min, read-out: IC50 for inhibiting SARS-CoV-2 PL^pro; for inhibition of PL^pro (in words): judged from IC50 values
in vitro = format: cell-based; conditions: African green monkey; VERO cells, 72 h exposure, CCK-8; read-out: Cytotoxicity (CC50)
Description: A CCK-8 assay (ab228554; Abcam, Cambridge, UK) was performed to evaluate the cytotoxicity of pure compounds. WST-8/CCK8 tetrazolium salt is reduced by cellular dehydrogenases to form an orange formazan product that is soluble in a tissue culture medium. The formazan produced is directly proportional to the number of living and metabolically active cells and is measured via absorbance at 460 nm. Therefore, VERO cells (2 × 10^4 cells/mL) were grown in 96-well microtiter plates at 37 °C in a 5% CO2 incubator for 24 h. Then, they were exposed to serial dilutions of L7OG CY, FA, and RA for 72 h and incubated with CCK8 tetrazolium salt for 4 h at 37 °C in a CO2 incubator. The absorbance was measured at 460 nm using a GloMax® Discover Microplate Reader (Promega, Madison, WI, USA), and the percentage of cellular viability was calculated and compared to untreated cells.
Commercially available cynarin (CY), rosmarinic acid (RA), folic acid (FA), and luteolin-7-O-glucuronide (L7OG) were used to prepare the respective stock solutions.
Specifically, L7OG was dissolved in DMSO to obtain a 5.5 mM solution, RA was dissolved in water to obtain an 8.0 mM solution, CY was dissolved in methanol to obtain a 4.7 mM solution, and FA was dissolved in ethanol to obtain an 8.7 mM solution.
Viability assay of natural compounds
VERO cells were exposed to different concentrations of L7OG, CY, FA, and RA for 72 h and incubated with CCK8 tetrazolium salt for 4 h before measuring the absorbance values in a microplate reader. The percentage of cellular viability was calculated and compared to untreated cells.
Figure S1. Cellular viability assay following treatment with different L7OG, CY, FA, and RA concentrations. VERO cells were incubated for […] with various concentrations of natural compounds, as reported in the material and methods section. Results represent the mean of three biologically independent experiments ± SD.
Table S1. Cytotoxicity (CC50) values (μM) of natural compounds on VERO cells.
(1 picture or pasted object on this page, not shown here)

[2] = target: recombinant SARS-CoV-2 3CL^pro (Severe acute respiratory syndrome coronavirus 2, UniProt P0DTD1); experiment: biochemical; format: biochemical; conditions: for inhibition of the enzymatic activity of 3CL^pro (in words): judged from IC50 values; for IC50: luminogenic substrate, 60 min, read-out: IC50 for inhibiting SARS-CoV-2 3CL^pro

Compound | IC50 (SARS-CoV-2 M^pro) [µM] | IC50 [1] [µM] | CC50 at 72 h (in vitro) [µM] | inhibition of the enzymatic activity of 3CL^pro (in words) [2] | IC50 [2] [µM] | inhibition of PL^pro (in words) [1]
O=C(/C=C/c1ccc(O)c(O)c1)O[C@H](Cc1ccc(O)c(O)c1)C(=O)O [RA, rosmarinic acid] | 6.84 | > 300 | 78.3 | no enzymatic inhibition | > 300 | 
O=C(/C=C/c1ccc(O)c(O)c1)O[C@@H]1C[C@@](OC(=O)/C=C/c2ccc(O)c(O)c2)(C(=O)O)C[C@@H](O)[C@@H]1O [CY, 1,3-dicaffeoylquinic acid] |  |  | 91.5 | no enzymatic inhibition | > 300 | 
O=C(O)[C@H]1O[C@@H](Oc2cc(O)c3c(=O)cc(-c4ccc(O)c(O)c4)oc3c2)[C@H](O)[C@@H](O)[C@@H]1O [Compound L7OG, luteolin-7-O-glucuronide] |  | 153 | 55.7 | moderate inhibition | 170 | moderately inhibit
Nc1nc(=O)c2nc(CNc3ccc(C(=O)N[C@@H](CCC(=O)O)C(=O)O)cc3)cnc2[nH]1 [FA, folic acid, reference compound] |  | 183 | 107 | moderate inhibition | 232 | moderately inhibit
